Results taken from US20260167623A1 (NIKANG THERAPEUTICS, INC., priority 2022, published 2026).
pIC50: −log10 of the molar value.

Target: T1, CDK2 (Homo sapiens, UniProt P24941)
T1 construct: High-Throughput Measurement of Cellular Endogenous CDK2; endogenous in cells; host or cells: OVCAR3
Assay: Inhibition of CDK2: phospho-Rb (S807/811) HTRF measurement in OVCAR3 cells, 24 h
Assay type: cell-based
Settings: 24 h compound treatment, read-out: pRB_OVCAR3_24h
Procedure, shortened: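 OVCAR3 cells, seeded overnight, were exposed to compounds at 0.3 to 10,000 nM for 24 h, then lysed. Rb S807/811 phosphorylation read by HTRF (665/620 nm ratio) after 4 h detection at room temperature; data normalized to DMSO and IC50 from four-parameter logistic fit.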

Compound | pIC50
Cn1nc(N2CCC(=O)NC2=O)c2ccc(C3CCN(CC4CCN(S(=O)(=O)c5ccc(Nc6ncc(C(F)(F)F)cn6)c(F)c5)CC4)CC3)cc21 [Example 18, 1-(6-(1-((1-((3-fluoro-4-((5-(trifluoro-methyl)pyrimidin-2-yl)amino)phenyl)-sulfonyl)piperidin-4-yl)methyl)piperidin-4-yl)-1-methyl-1H-indazol-3-yl)dihydropyrimidine-2,4(1H,3H)-dione] | 5.60 to 6.30
Cn1nc(N2CCC(=O)NC2=O)c2ccc(N3CCN(Cc4cccc(S(=O)(=O)N5CCC(Nc6ncc(Cl)cn6)CC5)c4)CC3)cc21 [Example 25, 1-(6-(4-(3-((4-((5-chloropyrimidin-2-yl)amino)piperidin-1-yl)sulfonyl)benzyl)-piperazin-1-yl)-1-methyl-1H-indazol-3-yl)dihydropyrimidine-2,4(1H,3H)-dione] | 6.30 to 7.00
Cn1nc(N2CCC(=O)NC2=O)c2ccc(C3CCN(CC4CCN(S(=O)(=O)N5CCC(Nc6ncc(C(F)(F)F)cn6)CC5)CC4)CC3)cc21 [Example 15, 1-(1-methyl-6-(1-((1-((4-((5-(trifluoro-methyl)pyrimidin-2-yl)amino)piperidin-1-yl)sulfonyl)piperidin-4-yl)methyl)piperidin-4-yl)-1H-indazol-3-yl)dihydropyrimidine-2,4(1H,3H)-dione] | 5.60 to 6.30

Second part, the molecule after the results:

pIC50 | Compound
6.30 to 7.00 | Cn1nc(N2CCC(=O)NC2=O)c2ccc(C3CCN(C[C@H]4CCCN(c5cccc(S(=O)(=O)N6CCC(Nc7ncc(OC(F)F)cn7)CC6)c5)C4)CC3)cc21 [Example 258, (R)-1-(6-(1-((1-(3-((4-((5-(difluoromethoxy)pyrimidin-2-yl)amino)piperidin-1-yl)sulfonyl)phenyl)piperidin-3-yl)methyl)piperidin-4-yl)-1-methyl-1H-indazol-3-yl)dihydropyrimidine-2,4(1H,3H)-dione]
7.00 to 9.00 | Cn1c(=O)n(C2CCC(=O)NC2=O)c2cccc(C3CCN(CC4CCN(c5cccc(S(=O)(=O)N6CCC(Nc7ncc(OC(F)F)cn7)CC6)c5)CC4)CC3)c21 (centres unmarked) [Example 121, 3-(4-(1-((1-(3-((4-((5-(difluoromethoxy)-pyrimidin-2-yl)amino)piperidin-1-yl)sulfonyl)phenyl)piperidin-4-yl)methyl)-piperidin-4-yl)-3-methyl-2-oxo-2,3-dihydro-1H-benzo[d]imidazol-1-yl)piperidine-2,6-dione]
6.30 to 7.00 | Cn1nc(N2CCC(=O)NC2=O)c2ccc(C3CN(CC4CCN(c5cccc(S(=O)(=O)N6CCC(Nc7ncc(Cl)cn7)CC6)c5)CC4)C3)cc21 [Example 249, 1-(6-(1-((1-(3-((4-((5-chloropyrimidin-2-yl)amino)piperidin-1-yl)sulfonyl)phenyl)piperidin-4-yl)methyl)azetidin-3-yl)-1-methyl-1H-indazol-3-yl)dihydropyrimidine-2,4(1H,3H)-dione]
5.60 to 6.30 | Cn1nc(N2CCC(=O)NC2=O)c2ccc(N3CCN(CC4CCN(c5cccc(S(=O)(=O)N6CCC(Nc7ncc(C(F)(F)F)cn7)CC6)c5)CC4)CC3)cc21 [Example 51, 1-(1-methyl-6-(4-((1-(3-((4-((5-(trifluoro-methyl)pyrimidin-2-yl)amino)piperidin-1-yl)sulfonyl)phenyl)piperidin-4-yl)methyl)piperazin-1-yl)-1H-indazol-3-yl)dihydropyrimidine-2,4(1H,3H)-dione]
5.60 to 6.30 | Cn1nc(N2CCC(=O)NC2=O)c2ccc(C3CCN(CC4CCN(c5ccc(S(=O)(=O)N6CCC(Nc7ncc(Cl)cn7)CC6)cc5)CC4)CC3)cc21 [Example 158, 1-(6-(1-((1-(4-((4-((5-chloropyrimidin-2-yl)amino)piperidin-1-yl)sulfonyl)phenyl)piperidin-4-yl)methyl)piperidin-4-yl)-1-methyl-1H-indazol-3-yl)dihydropyrimidine-2,4(1H,3H)-dione]
